Assay [1] addresses T1, 5-hydroxytryptamine receptor 3A (Homo sapiens, UniProt P46098).
T1 sequence (P46098 whole entry): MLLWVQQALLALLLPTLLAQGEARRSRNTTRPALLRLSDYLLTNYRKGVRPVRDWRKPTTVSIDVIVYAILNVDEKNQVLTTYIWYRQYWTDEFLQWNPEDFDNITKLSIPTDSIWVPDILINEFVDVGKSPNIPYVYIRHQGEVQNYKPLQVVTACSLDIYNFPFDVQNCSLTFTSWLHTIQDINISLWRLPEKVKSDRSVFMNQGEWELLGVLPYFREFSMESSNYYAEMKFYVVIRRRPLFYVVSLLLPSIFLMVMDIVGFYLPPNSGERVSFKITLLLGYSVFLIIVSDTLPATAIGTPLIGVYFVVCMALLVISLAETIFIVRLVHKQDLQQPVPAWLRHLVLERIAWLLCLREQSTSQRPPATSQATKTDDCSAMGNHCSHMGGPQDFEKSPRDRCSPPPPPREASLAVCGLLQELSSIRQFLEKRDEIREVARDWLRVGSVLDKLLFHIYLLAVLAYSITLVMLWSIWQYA
In kind it is functional.

The next assay addresses Mu-type opioid receptor (Homo sapiens, UniProt P35372). Description: biochemical. The assay is classed as functional.
The target in assay [2] is Beta-1 adrenergic receptor (Homo sapiens, UniProt P08588). The assay is classed as functional.
Sequence of Beta-1 adrenergic receptor (P08588 whole entry): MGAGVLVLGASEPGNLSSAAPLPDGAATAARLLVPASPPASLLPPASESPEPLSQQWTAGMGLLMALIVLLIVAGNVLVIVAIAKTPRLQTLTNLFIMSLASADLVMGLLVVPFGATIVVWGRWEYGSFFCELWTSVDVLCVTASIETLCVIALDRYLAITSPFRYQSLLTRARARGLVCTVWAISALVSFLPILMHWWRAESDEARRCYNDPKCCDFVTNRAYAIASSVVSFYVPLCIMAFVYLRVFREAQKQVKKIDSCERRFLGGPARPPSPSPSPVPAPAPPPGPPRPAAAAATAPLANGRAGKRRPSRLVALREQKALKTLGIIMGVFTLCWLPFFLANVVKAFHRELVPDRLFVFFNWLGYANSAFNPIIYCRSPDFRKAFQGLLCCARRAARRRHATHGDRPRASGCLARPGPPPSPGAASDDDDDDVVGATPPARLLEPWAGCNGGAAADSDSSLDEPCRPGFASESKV
The target in a further assay is D(1A) dopamine receptor (Homo sapiens, UniProt P21728). The assay is classed as functional, cell-based.
Sequence of D(1A) dopamine receptor (P21728 whole entry): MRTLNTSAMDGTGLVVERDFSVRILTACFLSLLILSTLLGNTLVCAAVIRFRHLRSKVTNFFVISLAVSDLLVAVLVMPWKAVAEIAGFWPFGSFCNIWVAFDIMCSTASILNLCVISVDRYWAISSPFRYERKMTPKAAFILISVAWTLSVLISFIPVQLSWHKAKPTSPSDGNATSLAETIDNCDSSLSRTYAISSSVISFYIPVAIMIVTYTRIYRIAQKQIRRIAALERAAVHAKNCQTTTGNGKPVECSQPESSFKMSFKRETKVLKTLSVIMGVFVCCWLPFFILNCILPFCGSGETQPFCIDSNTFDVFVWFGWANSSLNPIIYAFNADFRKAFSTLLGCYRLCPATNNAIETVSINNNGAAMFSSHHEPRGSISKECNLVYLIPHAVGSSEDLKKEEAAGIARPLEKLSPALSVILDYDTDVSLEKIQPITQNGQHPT
For assay [3], the target named is T2, 5-hydroxytryptamine receptor 2A (Homo sapiens, UniProt P28223). In kind it is functional, cell-based.
T2 sequence (P28223 whole entry): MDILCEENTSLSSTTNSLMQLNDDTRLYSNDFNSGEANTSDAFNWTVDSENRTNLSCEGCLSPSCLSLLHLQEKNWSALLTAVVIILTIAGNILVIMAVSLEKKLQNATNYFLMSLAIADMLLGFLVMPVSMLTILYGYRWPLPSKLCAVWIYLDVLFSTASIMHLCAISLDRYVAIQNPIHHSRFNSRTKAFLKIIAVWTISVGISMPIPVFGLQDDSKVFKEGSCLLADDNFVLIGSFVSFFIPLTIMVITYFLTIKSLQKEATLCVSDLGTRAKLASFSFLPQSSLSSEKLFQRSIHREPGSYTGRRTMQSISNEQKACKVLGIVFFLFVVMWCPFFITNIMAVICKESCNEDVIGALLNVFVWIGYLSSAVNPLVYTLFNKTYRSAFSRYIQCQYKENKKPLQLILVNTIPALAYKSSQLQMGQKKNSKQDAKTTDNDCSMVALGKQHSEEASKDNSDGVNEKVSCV
Assay [4] deals with T3, Cholecystokinin receptor type A (Homo sapiens, UniProt P32238).
T3 sequence (P32238 whole entry): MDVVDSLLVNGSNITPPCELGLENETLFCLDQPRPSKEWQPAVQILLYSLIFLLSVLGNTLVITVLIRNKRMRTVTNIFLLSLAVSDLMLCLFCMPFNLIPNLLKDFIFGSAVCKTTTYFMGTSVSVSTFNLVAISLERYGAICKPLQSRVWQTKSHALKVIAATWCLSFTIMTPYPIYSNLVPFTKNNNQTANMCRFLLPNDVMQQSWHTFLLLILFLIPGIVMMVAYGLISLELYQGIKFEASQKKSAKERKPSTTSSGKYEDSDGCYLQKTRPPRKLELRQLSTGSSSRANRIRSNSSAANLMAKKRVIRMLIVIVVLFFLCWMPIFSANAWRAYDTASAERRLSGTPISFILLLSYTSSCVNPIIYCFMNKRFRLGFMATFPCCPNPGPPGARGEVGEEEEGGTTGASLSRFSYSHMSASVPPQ

The target in the next assay is Histamine H2 receptor (Homo sapiens, UniProt P25021). In kind it is functional, cell-based.
Sequence of Histamine H2 receptor (P25021 whole entry): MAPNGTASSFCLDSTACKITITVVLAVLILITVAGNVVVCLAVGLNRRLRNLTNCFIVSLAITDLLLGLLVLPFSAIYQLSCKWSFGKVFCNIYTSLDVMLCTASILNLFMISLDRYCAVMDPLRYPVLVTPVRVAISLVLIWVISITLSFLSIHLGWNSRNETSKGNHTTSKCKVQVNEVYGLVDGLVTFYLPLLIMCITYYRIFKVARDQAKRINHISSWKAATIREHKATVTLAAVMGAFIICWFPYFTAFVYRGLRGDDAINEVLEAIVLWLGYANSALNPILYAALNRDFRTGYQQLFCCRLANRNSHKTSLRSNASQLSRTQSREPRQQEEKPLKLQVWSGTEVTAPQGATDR
Assay [5] has as its target T2, 5-hydroxytryptamine receptor 2A. The assay is classed as functional, cell-based. This is another data set of the same source.
The target in another assay is Histamine H3 receptor (Homo sapiens, UniProt Q9Y5N1).
Sequence of Histamine H3 receptor (Q9Y5N1 whole entry): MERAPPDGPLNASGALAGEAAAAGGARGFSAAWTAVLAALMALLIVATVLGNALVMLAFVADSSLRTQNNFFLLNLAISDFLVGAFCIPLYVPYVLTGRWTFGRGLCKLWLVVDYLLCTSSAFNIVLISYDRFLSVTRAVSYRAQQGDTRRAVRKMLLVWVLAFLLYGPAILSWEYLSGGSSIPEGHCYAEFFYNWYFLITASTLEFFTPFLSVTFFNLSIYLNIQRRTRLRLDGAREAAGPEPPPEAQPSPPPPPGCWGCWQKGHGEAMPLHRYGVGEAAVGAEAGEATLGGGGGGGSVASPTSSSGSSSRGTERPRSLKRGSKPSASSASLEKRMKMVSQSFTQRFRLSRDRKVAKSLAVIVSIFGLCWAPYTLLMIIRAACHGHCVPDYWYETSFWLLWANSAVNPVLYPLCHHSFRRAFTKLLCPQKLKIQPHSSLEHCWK
Assay [6] deals with Gamma-aminobutyric acid receptor subunit alpha-1 (Rattus norvegicus, UniProt P62813).
Sequence of Gamma-aminobutyric acid receptor subunit alpha-1 (P62813 whole entry): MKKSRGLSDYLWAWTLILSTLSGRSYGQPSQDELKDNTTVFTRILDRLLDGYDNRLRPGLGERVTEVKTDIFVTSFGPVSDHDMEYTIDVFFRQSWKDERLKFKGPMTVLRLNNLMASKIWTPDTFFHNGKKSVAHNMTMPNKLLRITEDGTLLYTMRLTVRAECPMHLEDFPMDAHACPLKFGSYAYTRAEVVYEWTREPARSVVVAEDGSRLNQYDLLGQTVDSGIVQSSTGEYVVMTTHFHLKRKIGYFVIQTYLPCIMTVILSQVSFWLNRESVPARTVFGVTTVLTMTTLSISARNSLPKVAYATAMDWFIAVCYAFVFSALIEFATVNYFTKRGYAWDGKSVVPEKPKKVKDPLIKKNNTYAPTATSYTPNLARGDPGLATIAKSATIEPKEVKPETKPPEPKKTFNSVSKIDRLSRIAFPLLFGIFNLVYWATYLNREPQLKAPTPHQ
Assay [7] deals with T4, Amine oxidase [flavin-containing] A (Homo sapiens, UniProt P21397).
T4 sequence (P21397 whole entry): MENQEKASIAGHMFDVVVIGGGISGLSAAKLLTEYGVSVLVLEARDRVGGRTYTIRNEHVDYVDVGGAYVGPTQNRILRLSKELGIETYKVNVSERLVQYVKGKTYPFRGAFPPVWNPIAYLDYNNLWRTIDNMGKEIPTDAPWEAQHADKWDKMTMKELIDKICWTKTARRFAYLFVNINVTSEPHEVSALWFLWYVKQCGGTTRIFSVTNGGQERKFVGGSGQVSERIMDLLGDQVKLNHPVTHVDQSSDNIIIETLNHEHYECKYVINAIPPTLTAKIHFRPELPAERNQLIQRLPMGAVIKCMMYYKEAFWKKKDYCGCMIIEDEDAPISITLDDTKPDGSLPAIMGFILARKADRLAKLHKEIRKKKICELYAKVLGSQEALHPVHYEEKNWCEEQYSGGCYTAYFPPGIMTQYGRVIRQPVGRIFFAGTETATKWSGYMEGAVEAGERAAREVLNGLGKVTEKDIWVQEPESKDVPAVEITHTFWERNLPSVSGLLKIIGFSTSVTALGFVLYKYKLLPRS
In kind it is functional.

The target of a further assay is T5, Estrogen receptor (Homo sapiens, UniProt P03372).
T5 sequence (P03372 whole entry): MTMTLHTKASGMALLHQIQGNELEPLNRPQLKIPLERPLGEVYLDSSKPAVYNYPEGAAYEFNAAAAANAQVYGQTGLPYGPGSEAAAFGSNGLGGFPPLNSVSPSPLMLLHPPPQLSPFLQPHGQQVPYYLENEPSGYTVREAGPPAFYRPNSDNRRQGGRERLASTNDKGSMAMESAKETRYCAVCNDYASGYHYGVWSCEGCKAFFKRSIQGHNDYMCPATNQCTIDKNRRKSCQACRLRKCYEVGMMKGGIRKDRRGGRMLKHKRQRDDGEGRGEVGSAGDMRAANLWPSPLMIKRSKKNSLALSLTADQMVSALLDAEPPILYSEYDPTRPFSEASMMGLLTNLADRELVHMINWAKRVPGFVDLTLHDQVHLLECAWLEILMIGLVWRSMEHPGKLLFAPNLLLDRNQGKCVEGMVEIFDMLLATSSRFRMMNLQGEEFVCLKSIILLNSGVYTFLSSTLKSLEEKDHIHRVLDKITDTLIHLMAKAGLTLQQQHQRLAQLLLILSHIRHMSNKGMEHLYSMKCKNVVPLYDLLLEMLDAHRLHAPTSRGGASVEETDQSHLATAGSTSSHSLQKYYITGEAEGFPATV

Bounds are passed on as bounds.

The record followed here is ChEMBL document CHEMBL5291721, “A preclinical secondary pharmacology resource illuminates target-adverse drug reaction associations of marketed drugs” (Nat Commun, 2023).

In general, AC50 refers to the concentration giving half of the maximal activity seen. Lower therefore signals greater potency.

Sequence of Mu-type opioid receptor (P35372 whole entry): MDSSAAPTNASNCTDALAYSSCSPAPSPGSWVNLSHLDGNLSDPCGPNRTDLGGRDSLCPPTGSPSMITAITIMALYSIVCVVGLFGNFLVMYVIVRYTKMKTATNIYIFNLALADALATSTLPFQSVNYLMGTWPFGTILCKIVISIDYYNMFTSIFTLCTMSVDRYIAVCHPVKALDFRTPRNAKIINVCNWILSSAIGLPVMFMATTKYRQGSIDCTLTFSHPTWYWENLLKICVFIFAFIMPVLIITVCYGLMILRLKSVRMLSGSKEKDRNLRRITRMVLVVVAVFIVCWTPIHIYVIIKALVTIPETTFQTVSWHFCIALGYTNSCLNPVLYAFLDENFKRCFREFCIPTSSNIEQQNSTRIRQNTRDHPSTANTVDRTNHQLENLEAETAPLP

`CC(C)C(=O)c1c(C(C)C)nn2ccccc12` [IBUDILAST]: the AC50 (in assay [1]; at Mu-type opioid receptor; in [2]; on D(1A) dopamine receptor; in assay [3]; in assay [4]) was > 30 µM each time. In addition, the AC50 (at Histamine H2 receptor; in assay [5]; at Histamine H3 receptor; in assay [6]) was > 30 µM each time.

On to `O=C(O)/C=C/c1ccc(Cn2ccnc2)cc1` [OZAGREL], for which the AC50 (in [1]; on Mu-type opioid receptor; in [2]; at D(1A) dopamine receptor; in assay [3]; in [4]) was > 30 µM throughout. For the same compound, the half-maximal activity concentration (AC50) (on Histamine H2 receptor; in [5]; in [7]; on Histamine H3 receptor; in assay [6]) was > 30 µM throughout.

Regarding `Cc1cccc(C(C)c2cnc[nH]2)c1C` (stereo not given) [MEDETOMIDINE], the AC50 (in assay [1]; at Mu-type opioid receptor; in [2]; on D(1A) dopamine receptor; in assay [3]; in assay [4]) was > 30 µM in each case. The half-maximal activity concentration (AC50) at Histamine H2 receptor is > 30 µM; in assay [5], > 30 µM; in [7], > 30 µM; on Histamine H3 receptor, > 30 µM; in assay [6], > 10 µM.

As to `CC(Oc1c(Cl)cccc1Cl)C1=NCCN1` (stereo not given) [LOFEXIDINE], the AC50 (in assay [1]; at Mu-type opioid receptor; in [2]; on D(1A) dopamine receptor; in assay [3]; in assay [4]) was > 30 µM throughout. The AC50 (on Histamine H2 receptor; in assay [5]; in assay [7]; on Histamine H3 receptor; in [6]) was > 30 µM in each case.

With `COc1ccc2c3c1O[C@H]1[C@@H](O)C=C[C@H]4[C@@H](C2)N(C)CC[C@@]341` [CODEINE], the AC50 in assay [1] is > 10 µM; on Estrogen receptor, > 30 µM; in [2], 0.9 µM; on D(1A) dopamine receptor, > 10 µM; in assay [4], > 30 µM; at Histamine H2 receptor, > 10 µM. The AC50 was > 10 µM in [7], > 10 µM at Histamine H3 receptor and > 30 µM in [6].

Turning to `CN1CCN(CC/C=C2/c3ccccc3Sc3ccc(S(=O)(=O)N(C)C)cc32)CC1` [THIOTHIXENE], the AC50 in assay [1] was 1.6 µM; on Estrogen receptor, > 30 µM; in assay [2] it was > 10 µM; at D(1A) dopamine receptor, > 30 µM; in [4], > 30 µM; at Histamine H2 receptor, > 10 µM. In addition, the AC50 in assay [7] and in assay [6] was > 10 µM in each case.

For the compound `COc1ccc(CCN(C)CCCC(C#N)(c2cc(OC)c(OC)c(OC)c2)C(C)C)cc1OC` (stereo not given) [GALLOPAMIL], the half-maximal activity concentration (AC50) in [1] is > 30 µM; on Mu-type opioid receptor it was > 30 µM; in [2] it was > 30 µM; at D(1A) dopamine receptor it was > 30 µM; in [3] it was 3.6 µM; in assay [4] it was > 30 µM. Besides, the AC50 (at Histamine H2 receptor; in assay [5]; in assay [7]; at Histamine H3 receptor; in assay [6]) was > 30 µM in each case.

For `CC=CC(=O)N(CC)c1ccccc1C`, the half-maximal activity concentration (AC50) was > 30 µM in assay [1]; > 10 µM on Estrogen receptor; > 10 µM in assay [2]; > 10 µM on D(1A) dopamine receptor; > 10 µM in assay [4]; > 10 µM at Histamine H2 receptor. In addition, the AC50 (in assay [7]; on Histamine H3 receptor; in assay [6]) was > 10 µM throughout.

As for `O=C(NCCNCC(O)COc1ccc(O)cc1)N1CCOCC1` (stereo not given) [XAMOTEROL], the AC50 (in assay [1]; at Mu-type opioid receptor; at D(1A) dopamine receptor; in assay [3]; in assay [4]; on Histamine H2 receptor) was > 30 µM throughout. Moreover, the concentration at half-maximal activity (AC50) (in assay [5]; in assay [7]; at Histamine H3 receptor; in assay [6]) was > 30 µM throughout.

Take `COc1ccc(-c2ccc3cc(C(=O)O)ccc3c2)cc1C12CC3CC(CC(C3)C1)C2`: the AC50 (in assay [1]; at Mu-type opioid receptor; in assay [2]; on D(1A) dopamine receptor; in [3]; in assay [4]) was > 30 µM in each case. Besides, the AC50 (at Histamine H2 receptor; in [5]; in assay [7]; on Histamine H3 receptor; in assay [6]) was > 30 µM each time.

`C#C[C@]1(O)CC[C@H]2[C@@H]3CCC4=Cc5oncc5C[C@]4(C)[C@H]3CC[C@@]21C` [DANAZOL]: the AC50 is > 30 µM at Estrogen receptor; > 10 µM in [2]; > 10 µM in assay [4]; > 10 µM on Histamine H2 receptor; > 10 µM in assay [7]; > 10 µM at Histamine H3 receptor. Moreover, the half-maximal activity concentration (AC50) in assay [6] was > 10 µM.

For `CC(C)(C)c1cc(C(C)(C)C)c(NC(=O)c2c[nH]c3ccccc3c2=O)cc1O` [IVACAFTOR], the AC50 in [1] is > 30 µM; at Estrogen receptor it was > 30 µM; in [2] it was > 10 µM; in [4], > 30 µM; on Histamine H2 receptor, > 10 µM; in [7] it was > 10 µM. Also, the concentration at half-maximal activity (AC50) (on Histamine H3 receptor; in assay [6]) was > 10 µM throughout.

For `NCC[C@H](O)C(=O)N[C@@H]1C[C@H](N)[C@@H](O[C@H]2O[C@H](CN)[C@@H](O)[C@H](O)[C@H]2O)[C@H](O)[C@H]1O[C@H]1O[C@H](CO)[C@@H](O)[C@H](N)[C@H]1O` [AMIKACIN], the AC50 in assay [1] is > 30 µM; at Estrogen receptor, > 10 µM; in assay [2], > 10 µM; on D(1A) dopamine receptor it was > 10 µM; in [4] it was > 10 µM; on Histamine H2 receptor, > 10 µM. Further, the AC50 in [7] and in [6] was > 10 µM throughout.

As for `NCC(=O)CCC(=O)O` [AMINOLEVULINIC ACID], the AC50 (in assay [1]; on Mu-type opioid receptor; in assay [2]; on D(1A) dopamine receptor; in assay [3]; in assay [4]) was > 30 µM each time. The AC50 (on Histamine H2 receptor; in [5]; in assay [7]; on Histamine H3 receptor; in assay [6]) was > 30 µM each time.
